# Experimental data taken from patent publication US9645136B2, “Methods of treating a meiotic kinesin-associated disease” (DANA-FARBER CANCER INSTITUTE, INC., priority 2008, dated 2017).
# Experiments:
# [1] = system: MDA-231, MMEDX 4N and N1E-115; assay: Multipolar spindles after transient actin or astral MT disruption, cell lines with multiple centrosomes; format: cell-based
# Procedure: (§1) To determine the effect of transient actin disruption in mammalian cells, the cell lines MCF-7, MDA-231, MMEDX 4N and N1E-115 were treated with DMSO, LatA (5 μM) or Dihydrocytochalasin B (DCB) (10 μM) for 2 hours. The MCF-7 cell line contains 2 centrosomes whereas the other cell lines contain greater than 2 centrosomes. […] These multipolar spindles result from declustering of extra centrosomes and were not due to the splitting/fragmentation of centrioles. Actin presumably influences centrosome positioning via forces on astral MTs.
# MDA-231 cells = assay: Multipolar spindles in MDA-231 cells; format: cell-based
# Procedure: The parallel between Drosophila and mammalian cells extended to the genetic requirements for centrosome clustering. To examine this further, siRNA experiments were performed with mammalian HSET (Ned homolog) and Myo10 genes, as follows. Mixed pools (ON-TARGETplus and SMART pools) of 4 different oligos of siRNAs against human HSET, human Myo10 and mouse Myo10 were purchased from Dharmacon, siRNA against mouse HSET was purchased from Ambion. Non-specific scrambled siRNA was used as control (Ambion). The oligo sequence of the siRNAs are set forth below in Table 2:
# Cells were transfected with Lipofectamine RNAiMAX (Invitrogen) with a final siRNA concentration of 50 nM according to the manufacturer's instructions. Cells were analyzed/harvested three days after transfection (unless specified otherwise). FIGS. 5 and 6 show the results of Western blots showing the depletion of HSET (FIG. 5) or Myo10 (FIG. 6) after three days of siRNA in MDA-231 and MCF-7 cells. FIG. 7 is a bar graph showing the percentage of cells with multipolar spindles in MCF-7 or MDA-231 cells upon treatment with siRNA of HSET or Myo10. […] As in S2 cells, Myo10-induced multipolarity is not a consequence of cytokinesis failure.
# Several lines of evidence support this hypothesis. First, live-cell imaging was used to correlate interphase cell shape with the pattern of cell division during mitosis. MDA-231 (breast cancer cells containing extra centrosomes) that assumed an elongated or polarized shape in interphase, almost uniformly underwent bipolar divisions. […] Second, in tetraploid BSC-1 cells, whose thick RFs are readily visualized by DIC imaging, it was noted that a strong correlation between the positioning of the RFs and whether cells underwent a bipolar (bipolar distribution of RFs) or multipolar division (isotropic distribution of RFs). Third, RFs accumulate specific proteins, such as the ERM protein ezrin, which are implicated in cortical heterogeneity and thus local force generation on astral MTs. […]
# S2 cells [2] = assay: Centrosome clustering defects in S2 cells after short drug treatment; format: cell-based, Drosophila
# Procedure: In addition to genes that likely contribute to the bundling and organization of spindle MTs, unexpectedly, genes involved in the organization and regulation of the actin cytoskeleton, such as the formin Form3/INF2 were also identified (Chhabra, E. S. and Higgs, H. N. (2006) J Biol Chem 281:26754-26767). […] Experiments using a brief (2 hr) treatment with small molecules that disrupt the actin cytoskeleton similarly induce multipolar mitoses.
# More specifically, cells were treated with Latrunculin (40 μM LatA), Cytochalasin D (20 μM) for 2 hours and the percentage of centrosome clustering defects was determined.
# Next, it was determined if cortical contraction is required for centrosome clustering. Cells were exposed, for 2 hours, to soluble tetravalent lectin concanavalin A (Con-A), which crosslinks the plasma membrane and thus globally blocks cortical contraction (Canman, J. C. and Bement, W. M. (1997) J Cell Sci 110 (Pt 16):1907-1917). The percentage of centrosome clustering defects after Con-A treatment was determined.
# Low concentrations of calyculin A (CA) inhibit the myosin light chain phosphatase (MLCP) and promote myosin II activation without altering its distribution (Gupton, S. M. and Waterman-Storer, C. M. (2006) Cell 125:1361-1374). […] Thus, in cells with extra centrosomes, actin and actin-based contractility influence whether mitosis is bipolar or multipolar.
# It was also determined whether the actin and intrinsic spindle forces act cooperatively to prevent multipolar mitoses. […] To farther evaluate this idea, time-lapse spinning disc microscopy was used to define the trajectory of centrosome movement in Ned-depleted S2 cells. […] Moreover, the bulk of the centrosome movement was directed away from the spindle and towards the cell cortex. […] Thus, cortical forces collaborate with intrinsic spindle bundling forces to organize multiple centrosomes.
# S2 cells [3] = assay: Live cell imaging of centrosome clustering in S2 cells; format: cell-based, Drosophila
# Procedure: Relative to controls (14.7±6.4 min), there was a 1.5 fold delay in centrosome clustering in 13/15 LatA-treated cells (22.1±12.3 min). […] The cell cycle delay induced by LatA treatment is likely due to activation of the SAC, as evidenced by prominent labeling of kinetochores with BubR1 in LatA-treated cells.
# MCF-7 = assay: Multipolar spindles in cells with normal centrosome number; format: cell-based; details: cells plated on FN 30 μg/ml
# Procedure: as §1
# Cells were transfected with Lipofectamine RNAiMAX (Invitrogen) with a final siRNA concentration of 50 nM according to the manufacturer's instructions. Cells were analyzed/harvested three days after transfection (unless specified otherwise). FIGS. 5 and 6 show the results of Western blots showing the depletion of HSET (FIG. 5) or Myo10 (FIG. 6) after three days of siRNA in MDA-231 and MCF-7 cells. […]
# Several lines of evidence support this hypothesis. […] Second, in tetraploid BSC-1 cells, whose thick RFs are readily visualized by DIC imaging, it was noted that a strong correlation between the positioning of the RFs and whether cells underwent a bipolar (bipolar distribution of RFs) or multipolar division (isotropic distribution of RFs). […]
# [4] = 2 hours, LatA 5 μM, DCB 10 μM, vs DMSO
compound,measurement,setting,value
COC(=O)Nc1nc2ccc(C(=O)c3cccs3)cc2[nH]1 [nocodazole],frequency of multipolar spindles,"[1]; low dose nocodazole, cells with extra centrosomes",increased the frequency of multipolar spindles
CC(C)(C)n1nc(-c2ccc(Cl)cc2)c2c(N)ncnc21 [PP2],multipolar spindles,MDA-231 cells; src kinase inhibitor PP2,induced multipolar spindles
"C/C1=C/C(=O)O[C@@H]2C[C@@H](CC[C@H](C)/C=C\C=C\CC1)O[C@@](O)([C@@H]1CSC(=O)N1)C2 [LatA, Latrunculin]",frequency of multipolar spindles,[1]; [4],significant increase
same,spindle multipolarity,S2 cells [2]; LatA treatment in Ned or Bj1/RCC1-depleted cells,combinatorial increase
same,delay in centrosome clustering relative to controls,S2 cells [3]; 13/15 LatA-treated cells,1.5 fold
same,time of centrosome clustering,"S2 cells [3]; 13/15 LatA-treated cells, controls 14.7±6.4 min",22.1 ± 12.3 min
same,cells that completely failed to cluster extra centrosomes,S2 cells [3]; LatA-treated cells,2/15
"COC[C@@H]([C@H](O)[C@H](O)C(=O)NCC[C@H](C)c1nc(/C=C/C[C@@H]2O[C@]3(C[C@@H](O)[C@@H]2C)O[C@H]([C@H](C[C@H](O)[C@H](C)[C@H](O)[C@H](C)/C=C(C)/C(C)=C/C=C/C(C)=C\C#N)OC)[C@H](OP(=O)(O)O)C3(C)C)co1)N(C)C [CA, calyculin A]",FN-induced increase of multipolar spindles,MDA-231 cells; CA added to cells plated on FN 30 μg/ml,reversed
same,centrosome clustering defect induced by Ned RNAi,S2 cells [2]; CA treatment of Ned RNAi cells,partially rescued
same,centrosome clustering defects,"S2 cells [2]; wild type S2 cells, low concentration CA, 15% without",9%
C=C1[C@@H](C)[C@H]2[C@H](Cc3ccccc3)NC(=O)[C@]23OC(=O)CC[C@H](O)CCC[C@@H](C)C/C=C/[C@H]3[C@@H]1O [Dihydrocytochalasin B],frequency of multipolar spindles,[1]; [4],significant increase
concanavalin A [Con-A],centrosome clustering defects / multipolar mitoses,S2 cells [2]; 2 hours treatment,induced centrosome clustering defects
fibronectin [FN],frequency of multipolar spindles,MDA-231 cells; cells plated on FN 30 μg/ml,increased the frequency of multipolar spindles
same,frequency of multipolar spindles,MCF-7,not in MCF-7 cells
